Laboratory results from ChEMBL document CHEMBL4004890, “RITA Mimics: Synthesis and Mechanistic Evaluation of Asymmetric Linked Trithiazoles” (2017).
The source made the active and inactive calls. The calls are words filed in the database; no cut-off is given here.

Columns and labels:
HCT-116 [1] = assay: Growth inhibition of human HCT116 cells at 10 uM after 24 hrs by CCK8 assay relative to control; assay type: functional
CCRF-CEM = assay: Antiproliferative activity against human CCRF-CEM cells; assay type: functional
HCT-116 [2] = assay: Antiproliferative activity against human HCT116 cells; assay type: functional
HCT-116 [3] = assay: Induction of apoptosis in human HCT116 cells at 10 uM after 24 hrs by Annexin-V-FITC/7AAD staining based flow cytometry; assay type: functional, cell-based
HCT-116 [4] = assay: Down regulation of c-Myc expression in human HCT116 cells at 1 uM after 12 to 24 hrs by chemiluminescent immunoblotting; assay type: functional, cell-based
HCT-116 [5] = assay: Down regulation of c-Myc expression in human HCT116 cells at 10 uM after 6 to 24 hrs by chemiluminescent immunoblotting; assay type: functional, cell-based
HCT-116 [6] = assay: Induction of apoptosis in human HCT116 cells at 1 uM after 24 hrs by Annexin-V-FITC/7AAD staining based flow cytometry; assay type: functional, cell-based
HCT-116 [7] = assay: Upregulation of p53 expression in human HCT116 cells at 1 uM at 6 hrs post dose by chemiluminescent immunoblotting; assay type: functional, cell-based
HCT-116 [8] = assay: Growth inhibition of human HCT116 cells after 24 hrs by CCK8 assay; assay type: functional; settings: HCT-116, 24 h
HCT-116 [9] = assay: Upregulation of p53 expression in human HCT116 cells at 10 uM at 12 hrs post dose by chemiluminescent immunoblotting; assay type: functional, cell-based
HCT-116 [10] = assay: Down regulation of Mcl-1 expression in human HCT116 cells at 1 to 10 uM after 6 to 24 hrs by chemiluminescent immunoblotting; assay type: functional, cell-based
HCT-116 [11] = assay: Down regulation of c-Myc expression in human HCT116 cells at 1 uM after 6 hrs by chemiluminescent immunoblotting; assay type: functional, cell-based
K562 = assay: Antiproliferative activity against human K562 cells; assay type: functional

CC(C)(C)OC(=O)N[C@H](Cc1ccccc1)c1nc(-c2nc(-c3nc(C(N)=O)cs3)cs2)cs1
growth inhibition (GI) (HCT-116 [1]): inactive

CN[C@@H](C)C(=O)N[C@H](C(=O)N1CCC[C@H]1c1nc(C(=O)c2ccc(F)cc2)cs1)C1CCCCC1 [LCL-161]
GI50 (CCRF-CEM): 250 nM

OCc1ccc(-c2ccc(-c3ccc(CO)s3)o2)s1
GI50 (HCT-116 [2]): 110 nM
Activity (HCT-116 [3]): Active
Activity (HCT-116 [4]): inactive
Activity (HCT-116 [5]): Active
Activity (HCT-116 [6]): Active
Activity (HCT-116 [7]): Active
GI50 (HCT-116 [8]): 800 nM
Activity (HCT-116 [9]): Active
Activity (HCT-116 [10]): Active
Activity (HCT-116 [11]): Active

CCOC(=O)c1csc(-c2csc(-c3csc([C@H](N)Cc4ccccc4)n3)n2)n1
growth inhibition (GI) (HCT-116 [1]): inactive

Cc1nc(Nc2ncc(C(=O)Nc3c(C)cccc3Cl)s2)cc(N2CCN(CCO)CC2)n1 [DASATINIB]
GI50 (K562): < 1 nM

CC(C)(C)OC(=O)N1Cc2ccccc2C[C@H]1c1nc(-c2nc(-c3nc(C(N)=O)cs3)cs2)cs1
growth inhibition (GI) (HCT-116 [1]): inactive

CCOC(=O)c1csc(-c2csc(-c3csc([C@@H]4Cc5ccccc5CN4C(=O)OC(C)(C)C)n3)n2)n1
growth inhibition (GI) (HCT-116 [1]): inactive

CCOC(=O)c1csc(-c2csc(-c3csc([C@H](Cc4ccccc4)NC(=O)OC(C)(C)C)n3)n2)n1
growth inhibition (GI) (HCT-116 [1]): inactive

CC(C)(C)OC(=O)N[C@@H](Cc1ccccc1)c1nc(-c2nc(-c3nc(C(N)=O)cs3)cs2)cs1
growth inhibition (GI) (HCT-116 [1]): inactive

CCOC(=O)c1csc(-c2csc(-c3csc([C@@H](N)Cc4ccccc4)n3)n2)n1
growth inhibition (GI) (HCT-116 [1]): inactive
